Results as given in US7855198B2, “Benzamide derivative or salt thereof” (Astellas Pharma Inc., priority 2003, dated 2010).
Where a name gives a salt, the structure may show the parent alone.

Tests used:
human VR1 = molecular target: T1, human VR1 (Homo sapiens, UniProt Q8NER1); assay: Receptor binding assay ([3H]RTX) using membranes of VR1 stably expressing cell; conditions: [3H]RTX binding, VR1/HEK293 membrane preparation
T1 construct: A full-length cDNA encoding human VR1 was obtained by the following method; expressed in transfected cells; membrane preparation
Experimental: A full-length cDNA encoding human VR1 was obtained by the following method. First, human brain mRNA was reverse transcribed using a reverse transcriptase to synthesize a first strand cDNA. Then, using the first strand cDNA as a template, PCR according to Hot Start method was carried out using Taq DNA polymerase. The above PCR was carried out by first conducting thermal denaturation of 98° C. (1 min) and then repeating a cycle consisting of 98° C. (15 sec)/63° C. (30 sec)/72° C. (3 min) 35 times using an oligonucleotide consisting of a base sequence of 424th to 443rd in a known human VR1 cDNA sequence (Genbank AJ277028.1) as a sense primer and an oligonucleotide consisting of a complimentary sequence of a base sequence of 3082nd to 3100th as an antisense primer.
An amplified DNA fraction was cloned using pCR-XL-TOPO vector (TOPO XL PCR Cloning Kit; Invitrogen, USA). The resulting plasmid DNA was digested with a restriction enzyme EcoRI to isolate human VR1-cDNA alone, which was then integrated into pcDNA3.1(+) plasmid (Invitrogen, USA). The above genetic engineering operations were carried out in accordance with known methods (Sambrook, J. et al, Molecular Cloning—A Laboratory Manual”, Cold Spring Harbor Laboratory Press, NY, 2001) and directions attached to individual reagents.
Next, the resulting pcDNA3.1-VR1 was transduced into HEK293 cells or CHO-KL cells. VR1/HEK293 cells were selected using a DMEM medium (Invitrogen, USA) containing 10% FBS, 100 μg/ml streptomycin, 100 U/ml penicillin, and 400 μg/ml G418 and VR1/CHO cells were selected using a HumF12 medium (Invitrogen, USA) containing 10% FBS, 100 μg/ml streptomycin, 100 U/ml penicillin, and 400 μg/ml G418 to prepare receptor stably expressing cell lines. The receptor stably expressing cells were subcultured in respective above media.
After the above VR1/HEK293 cells were cultured in glass dishes in a large quantity, the medium was removed and cells were scraped up with adding ice-cooled PBS. They were centrifuged at 1,000 rpm at 4° C. for 10 minutes. After a buffer for homogenization (25 mM Tris-HCl, 220 mM sucrose, pH 7.4) was added to the resulting sediment and the whole was homogenized, it was centrifuged at 2,200 rpm at 4° C. for 10 minutes. The resulting supernatant was centrifuged at 30,000×g at 4° C. for 20 minutes and an operation of adding 25 mM Tris-HCl, pH 7.4 to the resulting sediment and centrifuging it at 30,000×g at 4° C. for 20 minutes was repeated twice. The resulting sediment was suspended in 25 mM Tris-HCl, pH 7.4 and protein concentration was determined using a protein assay staining solution (Bio Rad, USA). The membrane preparation thus prepared was stored at −80° C.
The test was carried out by modifying the method of [Neurosci. 57: 747-757 (1993)]. Assay buffer (25 mM Tris-HCl, 0.025% BSA, pH 7.4) (147 μl), 3 μl of a test compound, 50 μl of [^3H]RTX (about 50,000 dpm; Perkin-Elmer Life Science, USA), 100 μl of the above membrane preparation (protein amount of about 25 μg) were mixed and incubated at 37° C. for 60 minutes, and then the whole was incubated on ice for 10 minutes. An ice-cooled […] (AGP; Sigma) was added in an amount of 200 μg/50 μl, followed by further 5 minutes of incubation. The completion of the incubation was effected by rapid filtration of the mixture using a GF/B filter (Perkin-Elmer Life Science, USA). After the filter was washed with ice-cooled 25 mM Tris-HCl buffer (pH 7.4) seven times, radioactivity of the filter was measured by means of a liquid scintillation counter (2500TR; Packard, USA). With regard to a specific binding, of the total binding amount of [^3H]RTX and membrane fractions of VR1 receptor stably expressing cell, a portion substituted by 1 μM RTX was regarded as a specific binding derived from VR1 receptor. Evaluation of the test compound was conducted as follows. […]

[1] = test system: paw-licking action induced by capsaicin; assay: Capsaicin test (paw-licking action); assay type: in vivo; conditions: mouse, oral administration 30 mg/kg, 45 minutes before capsaicin; read-out: Inhibition ratio (%)
Experimental: The test was carried out in accordance with [Neuropharmacol. 31: 1279-1285 (1992)]. When 1.6 μg of capsaicin was administered to the planta of a mouse (ddY, male, 4- to 5-weeks old), a paw-licking action is induced. By measuring a time of expressing paw-licking action during 5 minutes after the administration, an inhibitory effect on pain behavior was evaluated. A test compound was administered intraperitoneally 30 minutes before the capsaicin administration or administered orally 45 minutes before the capsaicin administration. Evaluation of the test compound was conducted by determining each inhibition ratio in a test compound-administered group when the time of expressing paw-licking action in a vehicle-administered group was regarded as 100%.

T1 sequence (Q8NER1 whole entry): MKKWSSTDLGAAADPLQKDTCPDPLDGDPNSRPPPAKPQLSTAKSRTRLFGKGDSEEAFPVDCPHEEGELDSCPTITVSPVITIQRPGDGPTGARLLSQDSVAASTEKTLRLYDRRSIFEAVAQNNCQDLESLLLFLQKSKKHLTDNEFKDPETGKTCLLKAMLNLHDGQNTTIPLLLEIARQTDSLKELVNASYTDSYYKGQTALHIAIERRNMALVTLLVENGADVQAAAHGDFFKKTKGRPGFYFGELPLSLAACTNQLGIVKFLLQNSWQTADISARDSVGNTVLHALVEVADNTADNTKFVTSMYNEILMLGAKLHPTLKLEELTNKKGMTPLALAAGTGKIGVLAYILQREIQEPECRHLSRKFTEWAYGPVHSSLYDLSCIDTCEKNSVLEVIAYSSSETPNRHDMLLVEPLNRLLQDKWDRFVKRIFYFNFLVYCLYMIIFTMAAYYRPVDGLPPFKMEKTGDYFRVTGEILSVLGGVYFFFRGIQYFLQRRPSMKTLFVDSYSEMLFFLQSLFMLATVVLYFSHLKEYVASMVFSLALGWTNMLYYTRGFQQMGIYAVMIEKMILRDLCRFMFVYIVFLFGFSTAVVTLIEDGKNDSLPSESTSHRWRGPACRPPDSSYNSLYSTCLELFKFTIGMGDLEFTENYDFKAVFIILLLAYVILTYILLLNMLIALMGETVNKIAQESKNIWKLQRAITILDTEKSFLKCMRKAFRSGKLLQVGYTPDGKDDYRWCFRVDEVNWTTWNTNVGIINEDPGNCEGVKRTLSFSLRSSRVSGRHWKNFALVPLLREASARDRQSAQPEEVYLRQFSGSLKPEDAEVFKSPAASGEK

Compound	IC50 (human VR1) [nM]	inhibition in vivo at 30 mg/kg [1] [%]
COc1cccc(NC(=O)c2ccc(-c3ccccc3)c(CN3CCCCC3)c2)c1 [Example 1, N-(3-methoxyphenyl)-2-(piperidin-1-ylmethyl)biphenyl-4-carboxamide hydrochloride]	≤ 1000	–
O=C(Nc1ccc2scnc2c1)c1ccc(-c2ccccc2)c(CN2CCCCC2)c1 [Example 7]	≤ 1000	–
O=C(Nc1ccc2scnc2c1)c1ccc(-c2ccccc2)c(CN2CCOCC2)c1 [Example 21]	≤ 1000	–
CC(C)N(Cc1cc(C(=O)Nc2ccc3scnc3c2)ccc1-c1ccccc1)C1CCCCC1 [Example 33]	≤ 1000	66
O=C1CCc2ccc(NC(=O)c3ccc(-c4ccccc4)c(CN4CCCCC4)c3)cc2N1 [Example 60]	≤ 1000	–
CN(C)c1ccc(NC(=O)c2ccc(-c3ccccc3)c(CN3CCCCC3)c2)cn1 [Example 71]	≤ 1000	–
CN1C(=O)CCc2ccc(NC(=O)c3ccc(-c4ccccc4)c(CN4CCCCC4)c3)cc21 [Example 78]	≤ 1000	76
CC1Oc2ccc(NC(=O)c3ccc(-c4ccccc4)c(CN4CCCCC4)c3)cc2N(C)C1=O (stereo not drawn) [Example 85]	≤ 1000	86
CC1(C)C(=O)Nc2cc(NC(=O)c3ccc(-c4ccccc4)c(CN4CCCCC4)c3)ccc21 [Example 87]	≤ 1000	67
O=C(Nc1ccc2scnc2c1)c1ccc(-c2ccccc2)c(CN2CCC(F)CC2)c1 [Example 110]	≤ 1000	–
CC1CCN(C2CCCN(Cc3cc(C(=O)Nc4ccc5c(c4)NC(=O)C(C)O5)ccc3-c3ccccc3)C2)CC1 (stereo not drawn) [Example 122]	≤ 1000	–
CCN(Cc1cc(C(=O)Nc2ccc3c(c2)NC(=O)C(C)O3)ccc1-c1ccccc1)CC(C)(C)O (stereo not drawn) [Example 123]	≤ 1000	69
Cn1c(=O)ccc2ccc(NC(=O)c3ccc(-c4ccccc4)c(CN4CCCCC4)c3)cc21 [Example 129]	≤ 1000	91
Cc1cc2ccc(NC(=O)c3ccc(-c4ccccc4)c(CN4CCCCC4)c3)cc2[nH]c1=O [Example 130]	≤ 1000	62
CCN(CC)Cc1cc(C(=O)Nc2cc3c(c(C(F)(F)F)c2)CC(=O)N3)ccc1-c1ccccc1 [Example 143]	≤ 1000	–
CN1C(=O)CCc2ccc(NC(=O)c3ccc(-c4cccs4)c(CN4CCCCC4)c3)cc21 [Example 163]	≤ 1000	–
CCN(Cc1cc(C(=O)Nc2ccc3c(c2)N(C)C(=O)CC3)ccc1-c1ccccc1)C1CCOCC1 [Example 170]	≤ 1000	68
CCN(Cc1cc(C(=O)Nc2ccc3c(c2)N(C)C(=O)CC3)ccc1-c1ccccc1)C1CCSCC1 [Example 181]	≤ 1000	–
CC(C)CN(CCN1CCCCC1)Cc1cc(C(=O)Nc2ccc3c(c2)NC(=O)C(C)O3)ccc1-c1ccccc1 (stereo not drawn) [Example 195]	≤ 1000	–
